The source of these data is US10350272B2, “Calcitonin analogues for treating diseases and disorders” (KeyBioscience AG, priority 2015, dated 2019).

The test system of assay [1] is liver sections from HFD-fed rats. Put plainly: Oil-Red-O staining of frozen liver sections. Type of assay: in vivo, rat. The settings on record: HFD rats, 2.5 μg/kg daily. How it is done: At termination of the study of Example 2 the rat livers were embedded using snap freezing in OCT, and then sectioned using a cryomicrotome. Sections were prepared from four groups, KBP-042 in HFD rats, KBP-089 in HFD rats, control HFD rats, and a lean rat comparison.
The sections were stained using Oil-Red-O staining. […] The lipid accumulation in pair-fed KBP-089 liver exceeded KBP-089 treated rats with 66.5% (p<0.001) and was not significant different from vehicle (0.6711). Statistical test performed was one-way ANOVA with Dunnet's post test for multiple comparisons. **p<0.01, ***p<0.001.

Assay [2] concerns obese rats. Put plainly: 16-day treatment study in obese rats (bodyweight, food intake, fat depots, liver lipid analysis). The settings on record: 16 days; for liver arachidonic acid / liver free fatty acids / liver triacylglycerols: extracted liver tissue, 7.5 μg/kg/day. Type of assay: in vivo, rat. Here is the method: Two studies were conducted, and in both studies the obese rats used were generated as follows:
To obtain obese rats, male Sprague-Dawley rats aged 12 weeks were placed on a diet consisting of regular rodent chow and a 60 kcal % high-fat diet (no. D12495; Research Diets) for a total of 12 wk. Following the 12 weeks on high fat diet the rats were randomized into treatment groups based on weight.
The initial study was a 16-day treatment study, in which three groups were studied: Lean (same age but no high fat diet), vehicle (obese control group), and KBP-042 at 7.5 μg/kg/day. Throughout the experiment the bodyweight and food intake were monitored, and at termination liver and fat depots were collected for weighing and potential analysis of triglyceride, free fatty acids and arachidonic acid content.
As the quantification procedure contains several steps an internal standard was added to each sample extraction, which enables the results to be normalized and correcting for any loss. The internal standard was prepared as a solution containing 3.66 mg/mL C19:0 TAG (Sigma-Aldrich, product number: T4632), 2.73 mg/mL C17:0 Phospholipid (PL), 0.4 mg/mL C19:0 FFA (Sigma-Aldrich, product number: N-8263), 0.096 mg/mL C15:0 Diacylglycerol (DAG), 0.06 mg/mL d31-tagged Ceramide, 0.03 mg/mL d7-tagged Sphingosine, 1.036 mg/mL Sitostanol, 0.04 mg/mL d31-tagged Sphingomyelin and 1.596 mg/mL C15:0 Cholesterolester in Chloroform:Methanol 2:1 (v/v).
The method is based on Folch et al. At the time of extraction the samples were portioned at 500 mg individually and transferred to glass tubes, followed by the addition of 10 mL 100 μg/mL butylated hydroxytoluene (BHT) in chloroform:methanol 2:1 (v:v), and placed on ice. Each sample was added 150 μL of the internal standard solution. Homogenization was performed using a rotor-stator submersion blender (IKA Ultra-Turrax T25) with the sample tubes submerged in ice-water. The samples were each homogenized for 3×10 seconds with 50 second intervals, where after the homogenate is transferred to 35 mL screw-cap centrifuge tubes. The aggregate was cleaned in 5 mL chloroform:methanol 2:1 in the original glass tube, which was then transferred quantitatively to the homogenate. The homogenate was added 3 mL (0.24 times the total homogenate volume) of 0.73% (w/v) NaCl in MiliQ H2O and mixed, followed by centrifugation at 2800·g for 5 minutes at 4° C., to create a 2-phase system. The lower phase was transferred to a clean 12.5 mL centrifugation tube. The homogenate (the upper phase) was then added 3 mL chloroform:methanol 85:15 and mixed, followed by another centrifugation step. The new lower phase was then isolated and added to the first extract and dried down under nitrogen in a 40° C. water bath, followed by resolubilization in 300 μL chloroform:methanol 2:1. At this point the lipid extracts can be stored at −20° C.
The lipid extracts were fractionated on amino-propyl columns (Phenomenex Strata NH2, product number: 8B-S009-HBJ). The columns were pre-washed with 2×2 mL chloroform:methanol 23:1 (v:v) and left to dry. During fractionation the columns were not allowed to dry. The columns were primed with 2×1 mL hexane followed by application of the lipid extracts. Fraction 1 containing cholesterol esters was eluted with 3 mL Hexane into a clean tube. Fraction 2 containing TAG was eluted using 3 mL hexane:chloroform:ethylacetate 100:5:5 (v:v:v) into a clean tube. Fraction 3 containing DAG, Cholesterol and Ceramide was eluted using 3×2 mL chloroform:methanol 23:1 (v:v) into a new glass. Fraction 4 containing FFA was eluted using 5 mL 2% acetic acid in diethyl ether into a new glass. Fraction 5 containing PL was eluted using 4 mL methanol into a new glass. Fractions 1 and 2 were dried down under nitrogen at 40° C. and re-dissolved in 300 μL chloroform:methanol 95:5 and stored at −20° C. […]

The mark [3] stands for this setting: KBP-042 7.5 μg/kg/day, vs saline.

Regarding “AcCSNLSTCVLGKLSQELHKLQTYPRTDVGANAP-NH2 (Ac-CSNLSTCVLGKLSQELHKLQTYPRTDVGANAP-NH2; not fully specified (bridges); cysteine pairing not given here) [KBP-042, calcitonin mimetic with Cys1-Cys7 disulphide bridge]”, the “decrease of HFD-induced lipid accumulation in liver compared to vehicle (Oil-Red-O)” value in assay [1] is given as 78.3%. For the same substance, the “fat depots (epididymal visceral fat)” value in assay [2] (KBP-042 7.5 μg/kg/day, at termination) is reported as “fats depots were reduced”. In addition, in assay [2] (setting [3]), the body weight result is on record as “marked weight reduction” and the food intake entry is “pronounced reduction in food intake early”. Also, in assay [2], the liver arachidonic acid entry is recorded as “reduced the levels”, the “liver free fatty acids” value is on record as “reduced” and the liver triacylglycerols entry is reported as “reduced triacylglycerols”. In addition, in assay [2] (listed as KBP-peptide), the liver arachidonic acid entry was “improvement”, the “liver free fatty acids” value was “improvement” and the liver triacylglycerols result is recorded as “improvement”.
